From ChEMBL document CHEMBL4480381, “Origin and bioactivities of thiosulfinated FK228” (Medchemcomm, 2019)
pIC50: −log10 of the molar value.

Biological target: Histone deacetylase 4 (Homo sapiens, UniProt P56524)
Experiment: Inhibition of human recombinant C-terminal GST-tagged HDAC4 (101 to 1084 residues) expressed in baculovirus infected Sf9 insect cells after 1 hr by HDAC-Glo1/2 luminescent assay

Histone deacetylase 4, sequence (P56524 whole entry, the tested form may be a part): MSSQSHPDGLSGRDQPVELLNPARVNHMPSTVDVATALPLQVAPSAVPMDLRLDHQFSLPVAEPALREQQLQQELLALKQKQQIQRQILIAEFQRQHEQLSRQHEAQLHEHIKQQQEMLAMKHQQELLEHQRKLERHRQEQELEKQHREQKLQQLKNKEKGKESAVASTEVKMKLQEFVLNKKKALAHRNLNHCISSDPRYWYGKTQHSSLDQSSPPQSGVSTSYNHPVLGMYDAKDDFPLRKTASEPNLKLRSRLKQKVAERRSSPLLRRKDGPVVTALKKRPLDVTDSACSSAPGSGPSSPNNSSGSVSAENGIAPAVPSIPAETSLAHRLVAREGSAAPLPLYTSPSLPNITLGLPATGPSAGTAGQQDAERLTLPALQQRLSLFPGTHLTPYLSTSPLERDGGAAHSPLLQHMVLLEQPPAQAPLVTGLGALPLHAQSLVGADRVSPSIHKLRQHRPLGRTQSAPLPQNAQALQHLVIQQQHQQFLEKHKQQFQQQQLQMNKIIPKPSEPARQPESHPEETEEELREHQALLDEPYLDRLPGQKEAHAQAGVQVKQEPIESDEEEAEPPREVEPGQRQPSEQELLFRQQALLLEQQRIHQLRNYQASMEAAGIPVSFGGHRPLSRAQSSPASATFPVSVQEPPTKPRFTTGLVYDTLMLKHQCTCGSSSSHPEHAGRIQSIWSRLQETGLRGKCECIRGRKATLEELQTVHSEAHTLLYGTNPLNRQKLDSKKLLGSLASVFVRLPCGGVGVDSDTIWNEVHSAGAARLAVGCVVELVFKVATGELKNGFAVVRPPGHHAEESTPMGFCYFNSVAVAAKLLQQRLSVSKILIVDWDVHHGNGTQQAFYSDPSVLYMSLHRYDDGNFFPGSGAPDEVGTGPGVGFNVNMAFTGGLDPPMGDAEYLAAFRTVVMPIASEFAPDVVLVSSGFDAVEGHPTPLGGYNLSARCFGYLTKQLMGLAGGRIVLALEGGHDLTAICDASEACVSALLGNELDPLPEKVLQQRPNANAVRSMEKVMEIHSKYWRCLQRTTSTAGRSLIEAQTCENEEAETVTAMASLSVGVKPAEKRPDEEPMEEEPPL

Structure (SMILES): C/C=C1\NC(=O)[C@H]2CSSCC/C=C/[C@H](CC(=O)N[C@H](C(C)C)C(=O)N2)OC(=O)[C@H](C(C)C)NC1=O [ROMIDEPSIN]
- pIC50: 5.35
